Test results published in patent US8916702B2 (priority 2012, dated 2014).

test system: HCV pseudoparticles (genotype 1a HCV E1 and E2 envelope, H77C isolate); assay: microbe, parasite or virus in culture; format: cell-based; conditions: Hepatitis C virus, Huh-7, 48 h, HCV pseudoparticle infection of Huh7 cells, luciferase 2 days after infection; average of duplicates

SMILES | EC50
CCC1(CC)CC1CNC(=O)C(=O)NCC[C@H](NC(=O)c1ccc(Nc2nc(NC3(c4ccc(Cl)cc4)CC3)nc(OCC(F)(F)F)n2)cc1)C(=O)OC (stereo partly drawn) [Compound 1199] | 0.19 nM
O=C(NC[C@H](NC(=O)c1ccc(Nc2nc(NC3(c4ccc(Cl)cc4)CC3)nc(OCC(F)(F)F)n2)cc1)C(=O)O)C(=O)NC1CCC(O)CC1 (stereo partly drawn) [Compound 1078] | 11.9 nM

same assay, conditions: Hepatitis C virus, Huh-7, 48 h, HCV pseudoparticles (genotype 1a, H77C) in Huh7 cells; average of duplicate; luciferase 2 days after infection

SMILES | EC50
Cn1ccnc1NC(=O)C(=O)NCC(C)(C)CNC(=O)c1ccc(Nc2nc(NC3(c4ccc(Cl)cc4)CC3)nc(OCC(F)(F)F)n2)cc1 [Compound 3379] | 0.14 nM
CC(C)(CNC(=O)C(=O)Nc1ccc(OC(F)F)cc1)CNC(=O)c1ccc(Nc2nc(NC3(c4ccc(Cl)cc4)CC3)nc(OCC(F)(F)F)n2)cc1 [Compound 3146] | 0.05 nM
COc1cc(Nc2nc(NC3(c4ccc(Cl)cc4)CC3)nc(OCC(F)(F)F)n2)ccc1C(=O)NCC(C)(C)CNC(=O)C(N)=O [Compound 3387] | 0.068 nM
CC(C)(CNC(=O)C(=O)Nc1ccc(CCCC(=O)O)cc1)CNC(=O)c1ccc(Nc2nc(NC3(c4ccc(Cl)cc4)CC3)nc(OCC(F)(F)F)n2)cc1 [Compound 3361] | 0.16 nM

same assay, conditions: Hepatitis C virus, Huh-7, 48 h, HCV pseudoparticles, Huh7 cells, luciferase 2 days after infection; average of duplicates

SMILES | EC50
Cc1ccc(NC(=O)C(=O)NCC(C)(C)CNC(=O)c2ccc(Nc3nc(NC4(c5ccc(Cl)cc5)CC4)nc(OCc4ccc(C(C)C)cc4)n3)cc2)cc1 [Compound 3839] | 0.078 nM

same assay, conditions: Hepatitis C virus, Huh-7, 48 h, read-out: Activity (EC50 class), HCV pseudoparticle infection of Huh7 cells, luciferase 2 days after infection; EC50 expressed as class A/B

SMILES | EC50
CCC1(CC)CC1CNC(=O)C(=O)NCC[C@H](NC(=O)c1ccc(Nc2nc(NC3(c4ccc(Cl)cc4)CC3)nc(OCC(F)(F)F)n2)cc1)C(=O)OC (stereo partly drawn) [Compound 1199] | 0.01 to 10 nM
COC(=O)[C@H](CCNC(=O)C(=O)Nc1cc[nH]n1)NC(=O)c1ccc(Nc2nc(NC3(c4ccc(Cl)cc4)CC3)nc(OCC(F)(F)F)n2)cc1 [Compound 1223] | 0.01 to 10 nM
CC(C)(C)C1CCC(NC(=O)C(=O)NCC[C@H](NC(=O)c2ccc(Nc3nc(NC4(c5ccc(Cl)cc5)CC4)nc(OCC(F)(F)F)n3)cc2)C(=O)O)CC1 (stereo partly drawn) [Compound 1128] | 0.01 to 10 nM
CCC(CC)NC(=O)C(=O)NCCC(NC(=O)c1ccc(Nc2nc(NC3(c4ccc(Cl)cc4)CC3)nc(OCC(F)(F)F)n2)cc1)C(=O)OC (stereo not drawn) [Compound 1106] | 0.01 to 10 nM
COC(=O)[C@H](CNC(=O)C(=O)Nc1cn[nH]c1)NC(=O)c1ccc(Nc2nc(NC3(c4ccc(Cl)cc4)CC3)nc(OCC(F)(F)F)n2)cc1 [Compound 1246] | 0.01 to 10 nM
O=C(NCC[C@H](NC(=O)c1ccc(Nc2nc(NC3(c4ccc(Cl)cc4)CC3)nc(OCC(F)(F)F)n2)cc1)C(=O)O)C(=O)NC1CCCCC1O (stereo partly drawn) [Compound 1113] | 0.01 to 10 nM
O=C(NC[C@H](NC(=O)c1ccc(Nc2nc(NC3(c4ccc(Cl)cc4)CC3)nc(OCC(F)(F)F)n2)cc1)C(=O)O)C(=O)NC1Cc2ccccc2C1 [Compound 1403] | 0.01 to 10 nM
COC(=O)[C@H](CCNC(=O)C(=O)Nc1cccc(C(F)(F)F)c1)NC(=O)c1ccc(Nc2nc(NC3(c4ccc(Cl)cc4)CC3)nc(OCC(F)(F)F)n2)cc1 [Compound 1229] | 0.01 to 10 nM
COc1ccc(CNC(=O)C(=O)NCC[C@H](NC(=O)c2ccc(Nc3nc(NC4(c5ccc(Cl)cc5)CC4)nc(OCC(F)(F)F)n3)cc2)C(=O)O)cc1 [Compound 1186] | 0.01 to 10 nM
CC(C)(CNC(=O)C(=O)Nc1ccc(F)c(F)c1)CNC(=O)c1ccc(Nc2nc(NC3(c4ccc(Cl)cc4)CC3)nc(OCC(F)(F)F)n2)cc1 [Compound 1556] | 0.01 to 10 nM
COC(=O)C(CNC(=O)C(=O)NC1CC(C)(C)CC(C)(C)C1)NC(=O)c1ccc(Nc2nc(NC3(c4ccc(Cl)cc4)CC3)nc(OCC(F)(F)F)n2)cc1 (stereo not drawn) [Compound 1047] | 0.01 to 10 nM
COC(=O)[C@H](CCNC(=O)C(=O)Nc1ccnn1C)NC(=O)c1ccc(Nc2nc(NC3(c4ccc(Cl)cc4)CC3)nc(OCC(F)(F)F)n2)cc1 [Compound 1239] | 0.01 to 10 nM
O=C(NC[C@H](NC(=O)c1ccc(Nc2nc(NC3(c4ccc(Cl)cc4)CC3)nc(OCC(F)(F)F)n2)cc1)C(=O)O)C(=O)NC1CCC(O)CC1 (stereo partly drawn) [Compound 1078] | 10 to 1000 nM
COC(=O)[C@H](CCNC(=O)C(N)=O)NC(=O)c1ccc(Nc2nc(NC3(c4ccc(Cl)cc4)CC3)nc(OCC(F)(F)F)n2)cc1 [Compound 1009, (S)-methyl 4-(2-amino-2-oxoacetamido)-2-(4-(4-(1-(4-chlorophenyl)cyclopropylamino)-6-(2,2,2-trifluoroethoxy)-1,3,5-triazin-2-ylamino)benzamido)butanoate] | 0.01 to 10 nM
COc1cc(NC(=O)C(=O)NCC[C@H](NC(=O)c2ccc(Nc3nc(NC4(c5ccc(Cl)cc5)CC4)nc(OCC(F)(F)F)n3)cc2)C(=O)O)ccc1-c1ccccc1 [Compound 1519] | 0.01 to 10 nM
O=C(NCc1ccc(F)cc1F)C(=O)NC[C@H](NC(=O)c1ccc(Nc2nc(NC3(c4ccc(Cl)cc4)CC3)nc(OCC(F)(F)F)n2)cc1)C(=O)O [Compound 1168] | 0.01 to 10 nM
O=C(NCCc1cccnc1)C(=O)NCC[C@H](NC(=O)c1ccc(Nc2nc(NC3(c4ccc(Cl)cc4)CC3)nc(OCC(F)(F)F)n2)cc1)C(=O)O [Compound 1337] | 0.01 to 10 nM

same assay, conditions: Hepatitis C virus, Huh-7, 48 h, read-out: Activity (EC50 class), HCV pseudoparticles, Huh7 cells, luciferase 2 days after infection; average of duplicates

SMILES | EC50
COc1ccc2sc(NC(=O)C(=O)NCC(C)(C)CNC(=O)c3ccc(Nc4nc(NC5(c6ccc(Cl)cc6)CC5)nc(OCC(F)(F)F)n4)cc3)nc2c1 [Compound 3806] | 0.01 to 10 nM
Cc1ccc(NC(=O)C(=O)NCC(C)(C)CNC(=O)c2ccc(Nc3nc(NC4(c5ccc(Cl)cc5)CC4)nc(OCc4ccc(C(C)C)cc4)n3)cc2)cc1 [Compound 3839] | 0.01 to 10 nM
CN(C)CCOc1ccc(NC(=O)C(=O)NC[C@H](NC(=O)c2ccc(Nc3nc(NC4(c5ccc(Cl)cc5)CC4)nc(OCC(F)(F)F)n3)cc2)C(=O)Cl)cn1 [Compound 3790] | 0.01 to 10 nM
Cc1ccc(NC(=O)C(=O)NCC(C)(C)CNC(=O)c2ccc(Nc3nc(NC4(c5ccc(Cl)cc5)CC4)nc(OCc4ccc(Cl)cc4)n3)cc2)cc1 [Compound 3849] | 0.01 to 10 nM
Cc1cc(NC(=O)C(=O)NCC(C)(C)CNC(=O)c2ccc(Nc3nc(NC4(c5ccc(Cl)cc5)CC4)nc(OCC(F)(F)F)n3)cc2)[nH]n1 [Compound 3673] | 0.01 to 10 nM
CC(C)(CNC(=O)C(=O)Nc1cccc(C(=O)Nc2ccccc2)c1)CNC(=O)c1ccc(Nc2nc(NC3(c4ccc(Cl)cc4)CC3)nc(OCC(F)(F)F)n2)cc1 [Compound 3669] | 0.01 to 10 nM
COC(=O)[C@H](CNC(=O)C(=O)Nc1cccc(-c2cnco2)c1)NC(=O)c1ccc(Nc2nc(NC3(c4ccc(Cl)cc4)CC3)nc(OCC(F)(F)F)n2)cc1 [Compound 3696] | 0.01 to 10 nM
COc1cccc2sc(NC(=O)C(=O)NCC(C)(C)CNC(=O)c3ccc(Nc4nc(NC5(c6ccc(Cl)cc6)CC5)nc(OCC(F)(F)F)n4)cc3)nc12 [Compound 3813] | 0.01 to 10 nM

same assay, conditions: Hepatitis C virus, Huh-7, read-out: Activity (EC50 class), HCV pseudoparticles (genotype 1a, H77C) in Huh7 cells; EC50 expressed as class A/B

SMILES | EC50
Cc1ccc(NC(=O)C(=O)NCCNC(=O)c2ccc(Nc3nc(NC4(c5ccc(Cl)cc5)CC4)nc(OCC(F)(F)F)n3)cc2)cc1 [Compound 3371] | 0.01 to 10 nM
O=C(NCCCCNC(=O)c1ccc(Nc2nc(NC3(c4ccc(Cl)cc4)CC3)nc(OCC(F)(F)F)n2)cc1)C(=O)Nc1cc(F)cc(F)c1 [Compound 3396] | 0.01 to 10 nM
Cc1ccc(-c2ccc(NC(=O)C(=O)NCCC(NC(=O)c3ccc(Nc4nc(NC5(c6ccc(Cl)cc6)CC5)nc(OCC(F)(F)F)n4)cc3)C(=O)O)cc2)cc1 (stereo not drawn) [Compound 3526] | 0.01 to 10 nM
O=C(NCC[C@H](NC(=O)c1ccc(Nc2nc(NC3(c4ccc(Cl)cc4)CC3)nc(OCC(F)(F)F)n2)cc1)C(=O)O)C(=O)Nc1ccc(C(O)N2CCOCC2)cc1 (stereo partly drawn) [Compound 3229] | 10 to 1000 nM
O=C(Nc1ccccc1)C(=O)N(CCO)CCCNC(=O)c1ccc(Nc2nc(NC3(c4ccc(Cl)cc4)CC3)nc(OCC(F)(F)F)n2)cc1 [Compound 3508] | 0.01 to 10 nM
Cn1ccnc1NC(=O)C(=O)NCC(C)(C)CNC(=O)c1ccc(Nc2nc(NC3(c4ccc(Cl)cc4)CC3)nc(OCC(F)(F)F)n2)cc1 [Compound 3379] | 0.01 to 10 nM
CC(C)(CNC(=O)C(=O)Nc1nncs1)CNC(=O)c1ccc(Nc2nc(NC3(c4ccc(Cl)cc4)CC3)nc(OCC(F)(F)F)n2)cc1 [Compound 3382] | 0.01 to 10 nM
COC(=O)[C@H](CNC(=O)C(=O)Nc1ccc(OC(F)F)cc1)NC(=O)c1ccc(Nc2nc(NC3(c4ccc(Cl)cc4)CC3)nc(OCC(F)(F)F)n2)cc1 [Compound 3215] | 0.01 to 10 nM
CC(C)(CNC(=O)C(=O)Nc1ccc(OC(F)F)cc1)CNC(=O)c1ccc(Nc2nc(NC3(c4ccc(Cl)cc4)CC3)nc(OCC(F)(F)F)n2)cc1 [Compound 3146] | 0.01 to 10 nM
COc1cc(Nc2nc(NC3(c4ccc(Cl)cc4)CC3)nc(OCC(F)(F)F)n2)ccc1C(=O)NCC(C)(C)CNC(=O)C(N)=O [Compound 3387] | 0.01 to 10 nM
O=C(NCC[C@H](NC(=O)c1ccc(Nc2nc(NC3(c4ccc(Cl)cc4)CC3)nc(OCC(F)(F)F)n2)cc1)C(=O)O)C(=O)Nc1ccc(-n2cncn2)cc1 [Compound 3231] | 0.01 to 10 nM
Cc1nccn1Cc1ccc(NC(=O)C(=O)NCC[C@H](NC(=O)c2ccc(Nc3nc(NC4(c5ccc(Cl)cc5)CC4)nc(OCC(F)(F)F)n3)cc2)C(=O)O)cc1 [Compound 3542] | 10 to 1000 nM
Cc1nnnn1-c1cc(Nc2nc(NC3(c4ccc(Cl)cc4)CC3)nc(OCC(F)(F)F)n2)ccc1C(=O)NCC(C)(C)CNC(=O)C(=O)Nc1cccc(F)c1 [Compound 3517] | 0.01 to 10 nM
Cc1cc(NC(=O)C(=O)NCC(O)CNC(=O)c2ccc(Nc3nc(NC4(c5ccc(Cl)cc5)CC4)nc(OCC(F)(F)F)n3)cc2)no1 (stereo not drawn) [Compound 3364] | 0.01 to 10 nM
COC(=O)[C@H](CCNC(=O)C(=O)Nc1ccc(Cn2cncn2)cc1)NC(=O)c1ccc(Nc2nc(NC3(c4ccc(Cl)cc4)CC3)nc(OCC(F)(F)F)n2)cc1 [Compound 3299] | 0.01 to 10 nM
Cc1ccccc1-c1ccc(NC(=O)C(=O)NC[C@H](NC(=O)c2ccc(Nc3nc(NC4(c5ccc(Cl)cc5)CC4)nc(OCC(F)(F)F)n3)cc2)C(=O)O)cc1 [Compound 3272] | 0.01 to 10 nM
CC(C)(CNC(=O)C(=O)Nc1ccc(CCCC(=O)O)cc1)CNC(=O)c1ccc(Nc2nc(NC3(c4ccc(Cl)cc4)CC3)nc(OCC(F)(F)F)n2)cc1 [Compound 3361] | 0.01 to 10 nM
COC(=O)/C(CCNC(=O)C(=O)Nc1ccc(-n2cccn2)cc1)=N\C(=O)c1ccc(Nc2nc(NC3(c4ccc(Cl)cc4)CC3)nc(OCC(F)(F)F)n2)cc1 [Compound 3136] | 0.01 to 10 nM
Cc1ccc(NC(=O)C(=O)NCC(O)CNC(=O)c2ccc(Nc3nc(NC4(c5ccc(Cl)cc5)CC4)nc(OCC(F)(F)F)n3)cc2)cc1Cl (stereo not drawn) [Compound 3466] | 0.01 to 10 nM
CC(C)(CNC(=O)C(=O)Nc1ccccc1C(=O)N1CCCCC1)CNC(=O)c1ccc(Nc2nc(NC3(c4ccc(Cl)cc4)CC3)nc(OCC(F)(F)F)n2)cc1 [Compound 3063] | 0.01 to 10 nM
CC(C)(CNC(=O)c1ccc(Nc2nc(NC3(c4ccc(Cl)cc4)CC3)nc(OCC(F)(F)F)n2)cc1)NC(=O)C(=O)N1CCc2ccccc2C1 [Compound 3440] | 0.01 to 10 nM
Cc1nnnn1-c1cc(Nc2nc(NC3(c4ccc(Cl)cc4)CC3)nc(OCC(F)(F)F)n2)ccc1C(=O)NCC(C)(C)CNC(=O)C(=O)Nc1ccc(F)cc1 [Compound 3552] | 0.01 to 10 nM
